Measured values: PubChem BioAssay (NCI)
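Step 1: Grow cells in 96-well plates. Step 2: Expose to compound for 48 hours at 5 concentrations. Step 3: Interpolate endpoints linearly; if unreached, use highest concentration. GI50 is the concentration that inhibits growth by half. The concentration for full growth arrest is given as TGI.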

How the values were obtained:
Assay in all cases: growth of human tumour cells (NCI), 48 h
786-0 renal = tested on: 786-0 renal
A498 renal = tested on: A498 renal
NCI-H460 lung = tested on: NCI-H460 lung
RXF 393 renal = tested on: RXF 393 renal
SK-MEL-5 melanoma = tested on: SK-MEL-5 melanoma
UACC-257 melanoma = tested on: UACC-257 melanoma
UACC-62 melanoma = tested on: UACC-62 melanoma
CCRF-CEM leukemia = tested on: CCRF-CEM leukemia
MOLT-4 leukemia = tested on: MOLT-4 leukemia
MCF7 breast = tested on: MCF7 breast

| SMILES | GI50 (786-0 renal) [µM] | TGI (786-0 renal) [µM] | GI50 (A498 renal) [µM] | TGI (A498 renal) [µM] | GI50 (NCI-H460 lung) [µM] | TGI (NCI-H460 lung) [µM] | GI50 (RXF 393 renal) [µM] | TGI (RXF 393 renal) [µM] | GI50 (SK-MEL-5 melanoma) [µM] | TGI (SK-MEL-5 melanoma) [µM] | GI50 (UACC-257 melanoma) [µM] | TGI (UACC-257 melanoma) [µM] | GI50 (UACC-62 melanoma) [µM] | TGI (CCRF-CEM leukemia) [µM] | TGI (MOLT-4 leukemia) [µM] | TGI (UACC-62 melanoma) [µM] | GI50 (CCRF-CEM leukemia) [µM] | GI50 (MCF7 breast) [µM] | TGI (MCF7 breast) [µM] | GI50 (MOLT-4 leukemia) [µM] |
| --- | --- | --- | --- | --- | --- | --- | --- | --- | --- | --- | --- | --- | --- | --- | --- | --- | --- | --- | --- | --- |
| C1CCC([PH+](C2CCCCC2)C2CCCCC2[PH+](C2CCCCC2)C2CCCCC2)CC1.[Au].[CH-]1CCCCC1CC1CCCC[N-]1 (centres undefined) | 0.518 | 2.02 | 0.145 | 0.673 | 0.303 | 1.09 | 0.277 | 1.12 | 0.288 | 0.813 | 0.323 | 1.94 | 0.249 |  |  |  |  |  |  |  |
| Cc1ccc2c(C3Cc4ccccc4N3C(=O)/C=C\C(=O)O)c(C)[nH]c2c1 (centres undefined) |  | > 100 |  | > 100 |  | > 100 |  | 93.8 |  | > 100 |  | > 100 |  | 62.5 | 94.6 | 97.6 |  |  |  |  |
| O=C1OCC2=C1C(c1ccccc1)c1cc3c(cc1N2)OCO3 (centres undefined) | 0.055 | > 69.3 | 0.0159 | 0.498 | 0.0354 |  |  |  | 0.0336 | 0.234 | 4.58 | > 100 | 0.0328 | > 100 |  | > 100 | 0.039 | 0.0316 | 17.3 | 0.036 |
| CO[C@H]1CC(O[C@@H]2/C(C)=C/C[C@@H]3C[C@@H](C[C@]4(C=C[C@H](C)[C@@H](C5CCCCC5)O4)O3)OC(=O)[C@@H]3C=C(C)[C@@H](O)[C@H]4OC/C(=C\C=C\[C@@H]2C)[C@]43O)O[C@@H](C)C1O[C@H]1C[C@H](OC)[C@@H](O)[C@H](C)O1 (some centres undefined) | 1.54 | 3.14 |  |  |  |  | 1.18 | 2.46 | 1.41 | 2.77 |  |  |  | 4.4 | 4.83 |  | 1.88 | 1.82 | 5.84 | 2.05 |
| N#CC(C#N)=C1NC(=O)CC(=O)N1 |  | > 100 |  | > 100 |  | > 100 |  | > 100 |  | > 100 |  | > 100 |  | > 100 | > 100 | > 100 |  |  |  |  |
| O=C1NC(=O)C2C(=O)NC(=O)C1C2c1c(Cl)cccc1Cl (centres undefined) |  | > 100 |  | > 100 |  | > 58.2 |  | 98.1 |  | > 100 |  | > 100 |  | > 69.6 | > 100 | > 100 |  |  |  |  |
| CC(=O)Nc1ccc(SC#N)c2c(NC(C)=O)cccc12 |  | > 100 |  | > 100 |  | > 100 |  | > 100 |  | > 100 |  | > 100 |  | > 90.6 | > 82.1 | > 100 |  |  |  |  |
| CCC(=O)C12OC3OC(C)(C)OC3C1OC(C)(C)O2 (centres undefined) |  | > 100 |  | > 100 |  | > 100 |  | > 100 |  |  |  | > 100 |  | > 100 | > 100 | > 100 |  |  |  |  |
| N#CC(=C1C=CC(=NO)C=C1)c1ccc(Cl)cc1 |  | 5.69 |  | > 100 |  | 56.4 |  | 36.5 |  | 21.3 |  |  |  | 9.01 | 39.5 | 21 |  |  |  |  |
| O=C1CC(c2c[nH]c3ccccc23)C(=O)N1 (centres undefined) |  | > 100 |  | > 100 |  | > 100 |  | > 100 |  | > 100 |  | > 100 |  | > 100 | > 100 | > 100 |  |  |  |  |
| COc1ccc(-c2[nH]c3ccccc3c2-c2ccc(OC)cc2)cc1 | 2.95 | 7.64 | 4 | 12.8 | 3.65 | 14 |  |  | 3.65 | 15.2 | 7.22 | 23.2 | 6.25 | > 100 | 9.62 | 22 | 2.85 | 2.87 | 12.4 | 2.68 |
| CC(C)C[C@H](NC(=O)CNC(=O)c1cc(Cl)ccc1Cl)B1OC(=O)CC(CC(=O)O)(C(=O)O)O1 (some centres undefined) | 0.0655 |  | 0.0347 | 0.164 | 0.231 |  | 0.0193 | 0.0438 | 0.0177 | 0.0467 |  |  | 0.0396 | > 100 | > 100 | 0.221 | 0.0299 | 0.0391 | 43.1 | 0.0366 |
| COc1cc(C(=O)C/C(CCC(=O)Nc2ccccc2[N+](=O)[O-])=N\NC(N)=O)ccc1O |  | > 100 |  | > 100 |  | > 100 |  | > 100 |  | > 100 |  | > 100 |  | > 100 | > 100 | > 100 |  |  |  |  |
| COC(=O)C1CC2CC(=NNC(N)=O)CC2C1 (centres undefined) |  | > 100 |  | > 100 |  | > 100 |  | > 100 |  | > 100 |  | > 100 |  | > 100 | > 100 | > 100 |  |  |  |  |
| CCN(CC)CC1c2ccccc2C(CNc2ccccc2)N1C (centres undefined) |  | > 100 |  |  |  | > 100 |  | > 100 |  | > 100 |  | > 100 |  | > 100 | > 100 | > 100 |  |  |  |  |
| CCCCCCCCCCCCCCCCCC[n+]1ccc2c(C)c3c(c(C)c2c1)c1cc(O)ccc1n3CC | 2.21 | 10.4 | 1.19 | 3.86 | 1.72 | 4.18 | 1.57 | 3.89 | 1.34 | 2.85 |  |  | 1.29 | 34.2 | 14.9 | 3.38 | 3.27 | 2.75 | 17.1 | 2.53 |
| Cc1[nH]c2ccccc2c1C(=O)CC1(O)C(=O)Nc2c(Cl)cc(Cl)cc21 (centres undefined) |  | > 100 |  | 67.4 |  | > 100 |  | 39.2 |  | 31.5 |  | 31.5 |  | 47.9 | 55.1 |  |  |  |  |  |
| Cc1ccc(-c2nnc(-c3nn(-c4ccccc4)c4nc5ccccc5nc34)o2)cc1 |  | 21.6 |  |  |  | 41.6 |  | 20.5 |  | 25.8 |  | > 100 |  | 64.3 | > 100 | 30.8 |  |  |  |  |
| CC1(O)C=CC(=O)C=C1 |  | 49.6 |  | > 78.6 |  | 44.9 |  | 44.4 |  | > 89.4 |  | 34.2 |  | > 77 | > 72.7 | 36.2 |  |  |  |  |
| COc1cc2c(c(OC)c1OC)-c1ccc(SC)c(=O)cc1C(NC(=O)c1ccccc1)CC2 (centres undefined) |  | 38.3 |  | 0.435 |  | 1.62 |  | 7.88 |  | < 0.01 |  | 18.4 |  | > 68.1 | 43.4 | 36.7 |  |  |  |  |
